This passage reports GI50 and TGI results from PubChem BioAssay (NCI).

Values joined by “and” are separate entries in the source; they are usually repeats but may differ in a detail not shown here. Identical values can stand only once.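 Following 48 hours of exposure in 96-well plates, responses at five concentrations were used to interpolate endpoints linearly. The concentration for 50% growth inhibition is given as GI50. Definition used: TGI = concentration required for complete inhibition of growth.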

Some test systems named below: 786-0 renal; CCRF-CEM leukemia; EKVX NSCLC; LOX IMVI melanoma; M14 melanoma; MDA-MB-435; NCI-H23 lung; OVCAR-5 ovarian; SK-MEL-2 melanoma; TK-10 renal.
Assay in all cases: NCI-60 cell line screen, 48 h

`CC(C)(C)OC(=O)NCCCCCCCCCn1c2c(c3ccccc3c1=O)C(=O)c1ccccc1-2`: the GI50 in the assay with 786-0 renal was 17.5 µM; in the assay with CCRF-CEM leukemia, more than 100 µM; with EKVX NSCLC, 49.2 µM; in the assay with LOX IMVI melanoma, 76.3 µM; with M14 melanoma, more than 100 µM; with MDA-MB-435, more than 100 µM. Also, the GI50 in the assay with NCI-H23 lung is 37 µM; in the assay with OVCAR-5 ovarian, more than 100 µM; with SK-MEL-2 melanoma, 27.9 µM; in the assay with TK-10 renal it was 17.4 µM. The TGI was 76.9 µM in the assay on 786-0 renal; more than 100 µM with CCRF-CEM leukemia; more than 100 µM with EKVX NSCLC; more than 100 µM in the assay with LOX IMVI melanoma; more than 100 µM with M14 melanoma; more than 100 µM with MDA-MB-435. In addition, the TGI in the assay on NCI-H23 lung is more than 100 µM; in the assay with OVCAR-5 ovarian it was more than 100 µM; in the assay on SK-MEL-2 melanoma it was 71.1 µM; with TK-10 renal, 45.8 µM.
On to `COc1ccc2nc3cc(Cl)ccc3c(Nc3ccccc3-c3ccccc3Nc3c4ccc(Cl)cc4nc4ccc(OC)cc34)c2c1`, for which the TGI is more than 59 µM with 786-0 renal; more than 49.2 µM in the assay on CCRF-CEM leukemia; more than 100 µM with EKVX NSCLC; 47.4 µM in the assay on LOX IMVI melanoma; more than 87.5 µM in the assay with M14 melanoma; more than 100 µM in the assay with MDA-MB-435. In addition, the TGI in the assay on NCI-H23 lung is more than 100 µM; in the assay with OVCAR-5 ovarian, more than 85.9 µM; in the assay with SK-MEL-2 melanoma, more than 73.7 µM; with TK-10 renal it was more than 100 µM.
Consider `COc1cc(C[C@H]2COC(=O)[C@]2(O)Cc2ccc(OCc3ccccc3)c(OC)c2)ccc1OCc1ccccc1`, for which the GI50 was 85.4 µM with 786-0 renal; more than 100 µM with CCRF-CEM leukemia; 24.2 µM in the assay on EKVX NSCLC; 35.9 µM in the assay with LOX IMVI melanoma; 47 µM in the assay with M14 melanoma; 20.9 µM in the assay on MDA-MB-435. Further, the GI50 in the assay with NCI-H23 lung was 30.6 µM; in the assay with OVCAR-5 ovarian, more than 100 µM; with SK-MEL-2 melanoma, more than 100 µM; in the assay with TK-10 renal it was 26.7 µM. In addition, the TGI in the assay on 786-0 renal, in the assay on CCRF-CEM leukemia, in the assay on EKVX NSCLC, in the assay with LOX IMVI melanoma, in the assay on M14 melanoma and in the assay with MDA-MB-435 was more than 100 µM each time. Also, the TGI with NCI-H23 lung, in the assay on OVCAR-5 ovarian, with SK-MEL-2 melanoma and with TK-10 renal was more than 100 µM each time.
Take `CC(=O)CC[N+](C)(C)C`: the TGI in the assay on 786-0 renal is 59.3 µM; in the assay on CCRF-CEM leukemia it was 13.7 µM; with EKVX NSCLC, 28.9 µM; in the assay on LOX IMVI melanoma it was 37.8 µM; in the assay with M14 melanoma, 52.1 µM; in the assay with MDA-MB-435, 76.7 µM. In addition, the TGI amounted to 59.6 µM with NCI-H23 lung, 67.6 µM in the assay with OVCAR-5 ovarian, 64.4 µM with SK-MEL-2 melanoma and 38.9 µM in the assay on TK-10 renal.
As for `CCC/C=C/C=C/C(=O)OC1/C(=C/C(=O)OC)CC2CC(C(C)O)OC(=O)CC(O)CC3CC(OC(C)=O)C(C)(C)C(O)(CC4C/C(=C/C(=O)OC)CC(/C=C/C(C)(C)C1(O)O2)O4)O3` (centres undefined), the GI50 was more than 12.5 µM with 786-0 renal; 8.79 µM and 5.35 µM and > 12.5 µM with CCRF-CEM leukemia; > 10.9 µM and 5.21 µM and > 12.5 µM with EKVX NSCLC; > 10.9 µM and 8.02 µM and > 12.5 µM in the assay with LOX IMVI melanoma; more than 12.5 µM in the assay on MDA-MB-435; more than 12.5 µM in the assay on NCI-H23 lung. For the same molecule, the GI50 is more than 11 µM in the assay on OVCAR-5 ovarian; > 10.9 µM and 5.77 µM and > 12.5 µM with SK-MEL-2 melanoma; more than 11 µM with TK-10 renal. Also, the TGI is 11 µM and > 12.5 µM in the assay with 786-0 renal; 10.9 µM and 11 µM and > 12.5 µM in the assay with CCRF-CEM leukemia; > 10.9 µM and 9.53 µM and > 12.5 µM in the assay on EKVX NSCLC; > 10.9 µM and 11 µM and > 12.5 µM in the assay with LOX IMVI melanoma; more than 11 µM in the assay with M14 melanoma; 11 µM and > 12.5 µM in the assay on MDA-MB-435. The TGI in the assay on NCI-H23 lung was > 10.9 µM and 11 µM and > 12.5 µM; in the assay with OVCAR-5 ovarian it was more than 12.5 µM; in the assay with SK-MEL-2 melanoma it was > 10.9 µM and 11 µM and > 12.5 µM; with TK-10 renal, more than 12.5 µM.
As to `CN(C)Cc1ccc(NC(=O)c2cncc(C#Cc3cnc(N)c4ncccc34)c2)cc1C(F)(F)F`, the GI50 was 1.77 µM with 786-0 renal; 1.34 µM in the assay with CCRF-CEM leukemia; 1.71 µM in the assay with EKVX NSCLC; 0.994 µM with LOX IMVI melanoma; 0.0802 µM in the assay with M14 melanoma; 0.376 µM in the assay with MDA-MB-435. Besides, the GI50 with NCI-H23 lung was 1.25 µM; in the assay with OVCAR-5 ovarian it was 1.27 µM; in the assay on SK-MEL-2 melanoma it was 1.56 µM; in the assay with TK-10 renal, 1.81 µM. Also, the TGI with 786-0 renal is 3.26 µM; in the assay on CCRF-CEM leukemia, 3.57 µM; in the assay on EKVX NSCLC, 3.36 µM; in the assay with LOX IMVI melanoma it was 2.24 µM; in the assay on M14 melanoma it was 1.33 µM; in the assay with MDA-MB-435, 1.88 µM. The TGI with NCI-H23 lung was found to be 2.68 µM; in the assay on OVCAR-5 ovarian, 2.6 µM; in the assay with SK-MEL-2 melanoma it was 27 µM; in the assay on TK-10 renal, 3.31 µM.
`O=[N+]([O-])c1ccccc1/C=N\NC(=S)N/N=C/c1ccccc1[N+](=O)[O-]`: the GI50 with 786-0 renal is 38 µM; with CCRF-CEM leukemia, 4.19 µM; in the assay on EKVX NSCLC, 8.11 µM; in the assay on LOX IMVI melanoma it was 6.48 µM; in the assay with M14 melanoma, 3.76 µM; in the assay with MDA-MB-435, 0.426 µM. Moreover, the GI50 in the assay on NCI-H23 lung is 10.8 µM; in the assay with OVCAR-5 ovarian, 51 µM; with SK-MEL-2 melanoma, 6.41 µM; in the assay with TK-10 renal it was 13.7 µM. Moreover, the TGI is more than 100 µM in the assay on 786-0 renal; more than 100 µM with CCRF-CEM leukemia; more than 100 µM in the assay on EKVX NSCLC; more than 100 µM in the assay on LOX IMVI melanoma; more than 100 µM in the assay on M14 melanoma; 3.62 µM in the assay with MDA-MB-435. Also, the TGI in the assay with NCI-H23 lung, in the assay on OVCAR-5 ovarian, in the assay on SK-MEL-2 melanoma and with TK-10 renal was more than 100 µM throughout.
For `Nc1[nH]nc(Nc2ccccc2)c1-c1nc2ccccc2s1`, the GI50 with 786-0 renal is 1.34 µM; in the assay with CCRF-CEM leukemia it was 0.911 µM; in the assay with EKVX NSCLC, 1.26 µM; with LOX IMVI melanoma, 1.59 µM; with M14 melanoma it was 1.55 µM; with MDA-MB-435 it was 1.94 µM. Moreover, the GI50 with NCI-H23 lung is 1.73 µM; in the assay with OVCAR-5 ovarian, 2.26 µM; with SK-MEL-2 melanoma it was 2.77 µM; in the assay with TK-10 renal, 3.02 µM. Moreover, the TGI in the assay with 786-0 renal was 3.08 µM; with CCRF-CEM leukemia, 9.61 µM; in the assay with EKVX NSCLC, 4.28 µM; with LOX IMVI melanoma, 2.97 µM; with M14 melanoma, 3.58 µM; with MDA-MB-435 it was 4.89 µM. Besides, the TGI in the assay on NCI-H23 lung stood at 5.04 µM; in the assay on OVCAR-5 ovarian, 8.77 µM; with SK-MEL-2 melanoma it was 8.9 µM; in the assay on TK-10 renal, 9.1 µM.
